Reference: ChEMBL document CHEMBL4476879, “MST1 kinase inhibitors and methods of their use” (2013)
The source made the active and inactive calls.

Experiments:
Type in all cases: functional, organism-based
Mus musculus [1] = assay: Therapeutic anti-inflammatory activity in mouse model of collagen-induced arthritis disease assessed as reduction in cumulative arthritis scores at 10 to 30 mg/kg, sc BID for 3 weeks days starting on day 20 after collagen immunization
Mus musculus [2] = assay: Therapeutic anti-inflammatory activity in mouse model of collagen-induced arthritis disease assessed as reduction in cumulative arthritis scores at 10 to 50 mg/kg, po BID for 3 weeks days starting on day 20 after collagen immunization
Mus musculus [3] = assay: Therapeutic anti-inflammatory activity in mouse model of collagen-induced arthritis disease assessed as effect on ankle thickness at 10 to 50 mg/kg, po BID for 3 weeks days starting on day 20 after collagen immunization
Mus musculus [4] = assay: Therapeutic anti-inflammatory activity in mouse model of collagen-induced arthritis disease assessed as effect on ankle thickness at 10 to 30 mg/kg, sc BID for 3 weeks days starting on day 20 after collagen immunization
Mus musculus [5] = assay: Therapeutic anti-inflammatory activity in mouse model of experimental autoimmune encephalomyelitis disease assessed as reduction in disease clinical scores at 3 to 10 mg/kg, sc BID for 12 days starting on day 9 after MOG peptide immunization
Mus musculus [6] = assay: Therapeutic anti-inflammatory activity in mouse model of experimental autoimmune encephalomyelitis disease assessed as reduction in disease clinical scores at 3 to 30 mg/kg, po BID for 21 days starting on day 9 after MOG peptide immunization
Mus musculus [7] = assay: Anti-inflammatory activity in mouse model of concanavalin A-induced hepatitis assessed as reduction in AST level at 1 to 10 mg/kg, po dosed dosed 16 hrs and 1 hr before and 8 hrs after concanavalin A challenge
Rattus norvegicus [8] = assay: Therapeutic anti-inflammatory activity in rat model of experimental autoimmune encephalomyelitis disease assessed as reduction in disease severity clinical scores at 0.3 to 10 mg/kg, po QD starting on day 10 after MOG peptide immunization
Mus musculus [9] = assay: Anti-inflammatory activity in mouse model of concanavalin A-induced hepatitis assessed as effect on IFNgamma level at 1 to 10 mg/kg, po dosed dosed 16 hrs and 1 hr before and 8 hrs after concanavalin A challenge
Mus musculus [10] = assay: Anti-inflammatory activity in mouse model of concanavalin A-induced hepatitis assessed as reduction in MCP1 level at 1 to 10 mg/kg, po dosed dosed 16 hrs and 1 hr before and 8 hrs after concanavalin A challenge
Mus musculus [11] = assay: Anti-inflammatory activity in mouse model of concanavalin A-induced hepatitis assessed as reduction in TNFalpha level at 1 to 10 mg/kg, po dosed dosed 16 hrs and 1 hr before and 8 hrs after concanavalin A challenge
Mus musculus [12] = assay: Anti-inflammatory activity in mouse model of concanavalin A-induced hepatitis assessed as reduction in ALT level at 1 to 10 mg/kg, po dosed dosed 16 hrs and 1 hr before and 8 hrs after concanavalin A challenge
Mus musculus [13] = assay: Anti-inflammatory activity in mouse model of concanavalin A-induced hepatitis assessed as reduction in IL6 level at 1 to 10 mg/kg, po dosed dosed 16 hrs and 1 hr before and 8 hrs after concanavalin A challenge
Mus musculus [14] = assay: Anti-inflammatory activity in mouse model of concanavalin A-induced hepatitis assessed as reduction in TNFalpha level at 10 to 100 mg/kg, po dosed dosed 16 hrs and 1 hr before and 8 hrs after concanavalin A challenge
Mus musculus [15] = assay: Prophylactic anti-inflammatory activity in mouse model of experimental autoimmune encephalomyelitis disease assessed as reduction in disease clinical scores at 10 mg/kg, po BID for 22 days starting on day (-1) before MOG peptide immunization
Mus musculus [16] = assay: Prophylactic anti-inflammatory activity in mouse model of experimental autoimmune encephalomyelitis disease assessed as reduction in disease clinical scores at 100 mg/kg, po for 22 days (dosed BID on days-1 to 9 and QD on days 10 to 21) starting on day (-1) before MOG peptide immunization
Mus musculus [17] = assay: Therapeutic anti-inflammatory activity in mouse model of experimental autoimmune encephalomyelitis disease assessed as reduction in disease clinical scores at 30 mg/kg, po BID for 14 days starting on day 9 after MOG peptide immunization
Mus musculus [18] = assay: Therapeutic anti-inflammatory activity in mouse model of experimental autoimmune encephalomyelitis disease assessed as reduction in disease clinical scores at 10 mg/kg, po BID for 14 days starting on day 9 after MOG peptide immunization
Mus musculus [19] = assay: Prophylactic anti-inflammatory activity in mouse model of experimental autoimmune encephalomyelitis disease assessed as reduction in disease clinical scores at 30 mg/kg, po BID for 22 days starting on day (-1) before MOG peptide immunization
Rattus norvegicus [20] = assay: Therapeutic anti-inflammatory activity in rat model of collagen-induced arthritis disease assessed as effect on ankle thickness by measuring water displacement at 10 to 25 mg/kg, po BID for 21 days starting on day 11 after immunization
Rattus norvegicus [21] = assay: Therapeutic anti-inflammatory activity in rat model of collagen-induced arthritis disease assessed as effect on ankle thickness by measuring water displacement at 50 mg/kg, po QD for 21 days starting on day 11 after immunization
Rattus norvegicus [22] = assay: Therapeutic anti-inflammatory activity in rat model of experimental autoimmune encephalomyelitis disease assessed as reduction in disease severity clinical scores at 10 to 50 mg/kg, po BID starting on day 9 after MOG peptide immunization
Mus musculus [23] = assay: Anti-inflammatory activity in mouse model of concanavalin A-induced hepatitis assessed as reduction in ALT level at 10 to 100 mg/kg, po dosed dosed 16 hrs and 1 hr before and 8 hrs after concanavalin A challenge
Mus musculus [24] = assay: Anti-inflammatory activity in mouse model of concanavalin A-induced hepatitis assessed as reduction in MCP1 level at 10 to 100 mg/kg, po dosed dosed 16 hrs and 1 hr before and 8 hrs after concanavalin A challenge
Mus musculus [25] = assay: Therapeutic anti-inflammatory activity in mouse model of collagen-induced arthritis disease assessed as effect on ankle thickness at 10 to 100 mg/kg, po BID for 21 days starting on day 20 after immunization
Mus musculus [26] = assay: Anti-inflammatory activity in mouse model of concanavalin A-induced hepatitis assessed as reduction in IL6 level at 10 to 100 mg/kg, po dosed dosed 16 hrs and 1 hr before and 8 hrs after concanavalin A challenge
Mus musculus [27] = assay: Therapeutic anti-inflammatory activity in mouse model of collagen-induced arthritis disease assessed as reduction in cumulative arthritis scores at 10 to 100 mg/kg, po BID for 21 days starting on day 20 after immunization
Rattus norvegicus [28] = assay: Therapeutic anti-inflammatory activity in rat model of collagen-induced arthritis disease assessed as reduction in cumulative arthritis scores at 10 to 25 mg/kg, po BID for 21 days starting on day 11 after immunization
Mus musculus [29] = assay: Anti-inflammatory activity in mouse model of concanavalin A-induced hepatitis assessed as reduction in AST level at 10 to 100 mg/kg, po dosed dosed 16 hrs and 1 hr before and 8 hrs after concanavalin A challenge
Rattus norvegicus [30] = assay: Therapeutic anti-inflammatory activity in rat model of collagen-induced arthritis disease assessed as reduction in cumulative arthritis scores at 50 mg/kg, po QD for 21 days starting on day 11 after immunization
Mus musculus [31] = assay: Anti-inflammatory activity in mouse model of concanavalin A-induced hepatitis assessed as effect on IFNgamma level at 10 to 100 mg/kg, po dosed dosed 16 hrs and 1 hr before and 8 hrs after concanavalin A challenge
Mus musculus [32] = assay: Therapeutic anti-inflammatory activity in mouse model of experimental autoimmune encephalomyelitis disease assessed as reduction in disease clinical scores at 100 mg/kg, po for 14 days ( dosed BID on days 9 to 13 and QD on day 14 to 23 starting on day 9 after MOG peptide immunization

Measured: Activity

CN(C1CC1)S(=O)(=O)c1ccc(-c2cnc(N)c(-c3ccc4c(c3)CCNC4=O)n2)cc1
active: Mus musculus [1] | Mus musculus [2] | Mus musculus [3] | Mus musculus [4] | Mus musculus [5] Dose-dependent effect | Mus musculus [6] Dose-dependent effect

N#CC1(c2ccc(-c3cnc(N)c(-c4ccc5c(c4)CCNC5=O)n3)cc2)CC1
active: Mus musculus [7] | Rattus norvegicus [8] | Mus musculus [9] | Mus musculus [10] | Mus musculus [11] | Mus musculus [12] | Mus musculus [13]

CN(C1CC1)S(=O)(=O)c1ccc(-c2cnc(N)c(-c3ccc4c(c3)CCNC4=O)c2)cc1
active: Mus musculus [14] | Mus musculus [15] | Mus musculus [16] | Mus musculus [17] | Mus musculus [18] | Mus musculus [19] | Rattus norvegicus [20] | Rattus norvegicus [21] | Rattus norvegicus [22] Dose-dependent effect | Mus musculus [23] | Mus musculus [24] | Mus musculus [25] | Mus musculus [26] | Mus musculus [27] | Rattus norvegicus [28] | Mus musculus [29] | Rattus norvegicus [30] | Mus musculus [31] | Mus musculus [32]
